From patent US9512107B2, “Therapeutically active compositions and their methods of use” (Agios Pharmaceuticals, Inc., priority 2012, dated 2016)
Substitutions are numbered along the chain they refer to.

Assays:
[1] = molecular target: T1, IDH2 R172K (Homo sapiens, UniProt P48735, R172K); assay: IDH2 R172K enzymatic assay (NADPH cofactor depletion, diaphorase/resazurin readout); format: biochemical; conditions: read-out: Enz R172K
T1 sequence (P48735 40-452 R172K): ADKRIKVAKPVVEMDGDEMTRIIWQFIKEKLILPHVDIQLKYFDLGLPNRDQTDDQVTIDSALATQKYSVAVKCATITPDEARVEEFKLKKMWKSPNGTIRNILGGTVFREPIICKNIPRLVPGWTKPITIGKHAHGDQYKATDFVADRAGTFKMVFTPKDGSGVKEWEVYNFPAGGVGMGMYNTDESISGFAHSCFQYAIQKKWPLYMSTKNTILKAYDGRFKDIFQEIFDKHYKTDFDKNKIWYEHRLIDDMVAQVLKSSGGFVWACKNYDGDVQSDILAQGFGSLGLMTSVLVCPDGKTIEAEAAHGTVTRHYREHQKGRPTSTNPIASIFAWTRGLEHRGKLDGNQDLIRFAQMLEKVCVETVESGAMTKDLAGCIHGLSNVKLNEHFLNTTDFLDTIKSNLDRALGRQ
Method: Compounds are assayed for IDH2 R172K inhibitory activity through a cofactor depletion assay. […] The reaction is terminated by the addition of a second enzyme, diaphorase, and a corresponding substrate, resazurin. Diaphorase reduces resazurin to the highly fluorescent resorufin with the concomitant oxidation of NADPH to NADP, both halting the IDH2 reaction by depleting the available cofactor pool and facilitating quantitation of the amount of cofactor remaining after a specific time period through quantitative production of an easily detected fluorophore.
The test compound is then incubated for one hour at room temperature with the enzyme; before starting the IDH2 reaction with the addition of 10 μl of substrate mix containing 50 μM NADPH and 6.3 mM α-KG in the buffer described above. After a further one hour of incubation at room temperature, the reaction is halted and the remaining NADPH measured through conversion of resazurin to resorufin by the addition of 25 μl Stop Mix (36 μg/ml diaphorase enzyme and 60 μM resazurin; in buffer).

[2] = molecular target: T2, IDH2 R140Q (Homo sapiens, UniProt P48735, R140Q); assay: IDH2 R140Q enzymatic assay (cofactor depletion, similar format); format: biochemical; conditions: read-out: Enz R140Q
T2 sequence (P48735 40-452 R140Q): T1 sequence (P48735 40-452 R172K) with R101Q, K133R

[3] = tested on: U87MG pLVX-IDH2 R140Q-neo cells; assay: U87MG pLVX-IDH2 R140Q-neo cell based assay, 2-HG in media by LC-MS at 48 hours; conditions: for IC50: Homo sapiens, U-87 MG
Summary of the method: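 U87MG cells stably expressing IDH2 R140Q were seeded overnight, then exposed to compound at 0.2% final DMSO at 37 °C, 5% CO2. 2-HG in the medium was quantified by LC-MS at 48 h. Growth inhibition was read by CellTiter-Glo luminescence at 72 h.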

Row | IC50 [1] | IC50 [2] | IC50 [3] | SMILES | Cell R140Q [3]
1 | > 10 µM | 0.1 to 1 µM | 1 to 10 µM | CC(C)Nc1nc(Nc2ccccc2)nc(-c2ccnn2C)n1 [Compound 119] | 
2 | 0.1 to 1 µM | < 0.1 µM | < 0.1 µM | COc1ccccc1-c1nc(Nc2ccccc2)nc(NC(C)C)n1 [Compound 120] | 
3 | < 0.1 µM | < 0.1 µM | < 0.1 µM | CC(C)Nc1nc(Nc2ccccc2)nc(-c2ccccc2Cl)n1 [Compound 121] | 
4 | 1 to 10 µM | 0.1 to 1 µM | 1 to 10 µM | CC(C)Nc1nc(Nc2ccccc2)nc(-c2ccc(Cl)cc2)n1 [Compound 122] | 
5 | 0.1 to 1 µM | < 0.1 µM | 0.1 to 1 µM | Cc1ccccc1-c1nc(Nc2ccccc2)nc(NC(C)C)n1 [Compound 123] | 
6 | 0.1 to 1 µM | < 0.1 µM | < 0.1 µM | FC(F)(F)CNc1nc(Nc2ccccc2)nc(-c2ccccc2)n1 [Compound 126] | 
7 | 1 to 10 µM | 0.1 to 1 µM | 1 to 10 µM | CC(C)Nc1nc(Nc2ccccc2)nc(-c2cccc(C#N)c2)n1 [Compound 128] | 
8 | 1 to 10 µM | < 0.1 µM | 0.1 to 1 µM | CC(C)Nc1nc(Nc2ccncc2)nc(-c2ccccc2)n1 [Compound 129, N^2-isopropyl-6-phenyl-N^4-(pyridin-4-yl)-1,3,5-triazine-2,4-diamine] | 
9 | 0.1 to 1 µM | < 0.1 µM | < 0.1 µM | CC(C)Nc1nc(Nc2cccc(C#N)c2)nc(-c2ccccc2)n1 [Compound 130] | 
10 | 0.1 to 1 µM | < 0.1 µM | < 0.1 µM | CC(C)Nc1nc(Nc2ccc(F)cc2)nc(-c2ccccc2)n1 [Compound 132] | 
11 | > 10 µM | 0.1 to 1 µM | 1 to 10 µM | c1ccc(Nc2nc(NCc3ccccn3)nc(-c3ccccc3)n2)cc1 [Compound 135] | 
12 | 1 to 10 µM | < 0.1 µM | 0.1 to 1 µM | CC(C)Nc1nc(Nc2ccccc2)nc(-c2ccccc2C#N)n1 [Compound 139] | 
13 | 1 to 10 µM | < 0.1 µM | 0.1 to 1 µM | CC(C)Nc1nc(Nc2ccc(F)cc2F)nc(-c2ccccc2)n1 [Compound 140] | 
14 | 0.1 to 1 µM | < 0.1 µM | 0.1 to 1 µM | CC(C)Nc1nc(Nc2ccc(C#N)cc2)nc(-c2ccccc2)n1 [Compound 141] | 
15 | 0.1 to 1 µM | < 0.1 µM | 0.1 to 1 µM | CC(C)Nc1nc(Nc2ccc(Cl)cc2)nc(-c2ccccc2)n1 [Compound 143] | 
16 | 1 to 10 µM | 0.1 to 1 µM | 0.1 to 1 µM | Cc1ccccc1Nc1nc(NC(C)C)nc(-c2ccccc2)n1 [Compound 147] | 
17 | 1 to 10 µM | 0.1 to 1 µM | 0.1 to 1 µM | CC(C)Nc1nc(Nc2ccccc2)nc(-c2ccn[nH]2)n1 [Compound 148] | 
18 | < 0.1 µM | < 0.1 µM | < 0.1 µM | CC(C)Nc1nc(Nc2cccc(Cl)c2)nc(-c2ccccc2)n1 [Compound 149] | 
19 | 1 to 10 µM | 0.1 to 1 µM | 0.1 to 1 µM | CC(C)Nc1nc(Nc2cccc(CO)c2)nc(-c2ccccc2)n1 [Compound 150] | 
20 | 0.1 to 1 µM | 0.1 to 1 µM | 0.1 to 1 µM | CC(C)Nc1nc(Nc2ccccc2)nc(-c2cccc(S(C)(=O)=O)c2)n1 [Compound 151] | 
21 | 1 to 10 µM | < 0.1 µM | 0.1 to 1 µM | CC(C)Nc1nc(Nc2cccnc2)nc(-c2ccccc2)n1 [Compound 154] | 

Row | IC50 [1] | IC50 [2] | IC50 [3] | SMILES | Cell R140Q [3]
22 | > 10 µM | 0.1 to 1 µM |  | CC(C)Nc1nc(Nc2ccccn2)nc(-c2ccccc2)n1 [Compound 155] | No Fit
23 | 1 to 10 µM | 0.1 to 1 µM | 0.1 to 1 µM | CC(C)Nc1nc(Nc2ccccc2)nc(-c2ccncc2)n1 [Compound 156] | 
24 | 0.1 to 1 µM | < 0.1 µM | 0.1 to 1 µM | CC(C)Nc1nc(Nc2ccccc2)nc(-c2cccc(Cl)c2)n1 [Compound 158] | 
25 | 1 to 10 µM | 0.1 to 1 µM | 0.1 to 1 µM | COc1ccc(Nc2nc(NC(C)C)nc(-c3ccccc3)n2)cc1 [Compound 159] | 
26 | 0.1 to 1 µM | < 0.1 µM | 0.1 to 1 µM | CC(C)OC(=O)Nc1nc(Nc2ccccc2)nc(-c2ccccc2)n1 [Compound 160, isopropyl 4-phenyl-6-(phenylamino)-1,3,5-triazin-2-ylcarbamate] | 
27 | 1 to 10 µM | 0.1 to 1 µM | 1 to 10 µM | CC(C)Nc1nc(Nc2ccccc2Cl)nc(-c2ccccc2)n1 [Compound 162] | 
28 | 0.1 to 1 µM | < 0.1 µM | < 0.1 µM | CC(C)C(=O)Nc1nc(Nc2ccccc2)nc(-c2ccccc2)n1 [Compound 167] | 
29 | 0.1 to 1 µM | < 0.1 µM | < 0.1 µM | c1ccc(Nc2nc(NC3CCOCC3)nc(-c3ccccc3)n2)cc1 [Compound 168] | 
30 | 0.1 to 1 µM | < 0.1 µM | 0.1 to 1 µM | CC(C)Nc1nc(Nc2ccon2)nc(-c2ccccc2)n1 [Compound 169] | 
31 | 0.1 to 1 µM | 0.1 to 1 µM | 1 to 10 µM | CC(C)Nc1nc(NC(=O)Cc2ccccc2)nc(-c2ccccc2)n1 [Compound 170] | 
32 | 0.1 to 1 µM | < 0.1 µM | 0.1 to 1 µM | O=C(Cc1ccccc1)Nc1nc(Nc2ccccc2)nc(-c2ccccc2)n1 [Compound 172] | 
33 | < 0.1 µM | < 0.1 µM | < 0.1 µM | Clc1cccc(Nc2nc(NC3CCOCC3)nc(-c3ccccc3)n2)c1 [Compound 173] | 
34 | 0.1 to 1 µM | < 0.1 µM | < 0.1 µM | c1ccc(Nc2nc(NC3CCOC3)nc(-c3ccccc3)n2)cc1 (stereo not drawn) [Compound 174, N^2,6-diphenyl-N^4-(tetrahydrofuran-3-yl)-1,3,5-triazine-2,4-diamine] | 
35 | 0.1 to 1 µM | < 0.1 µM | < 0.1 µM | c1ccc(Nc2nc(NC3COC3)nc(-c3ccccc3)n2)cc1 [Compound 175, N^2-(oxetan-3-yl)-N^4,6-diphenyl-1,3,5-triazine-2,4-diamine] | 
36 | 0.1 to 1 µM | < 0.1 µM | 0.1 to 1 µM | CC1(Nc2nc(Nc3ccccc3)nc(-c3ccccc3)n2)COC1 [Compound 176, N^2-(3-methyloxetan-3-yl)-N^4,6-diphenyl-1,3,5-triazine-2,4-diamine] | 
37 | 0.1 to 1 µM | < 0.1 µM | < 0.1 µM | CC(C)Nc1nc(Nc2cccc(S(=O)(=O)N(C)C)c2)nc(-c2ccccc2)n1 [Compound 177, 3-(4-(isopropylamino)-6-phenyl-1,3,5-triazin-2-ylamino)-N,N-dimethylbenzenesulfonamide] | 
38 | < 0.1 µM | < 0.1 µM | < 0.1 µM | CC(C)Nc1nc(Nc2cccc(F)c2)nc(-c2ccccc2)n1 [Compound 178, N-(3-Fluoro-phenyl)-N′-isopropyl-6-phenyl-[1,3,5]triazine-2,4-diamine] | 
39 | < 0.1 µM | < 0.1 µM | < 0.1 µM | CC(C)COC(=O)Nc1nc(Nc2ccccc2)nc(-c2ccccc2)n1 [Compound 179, Isobutyl 4-phenyl-6-(phenyl-amino)-1,3,5-triazin-2-ylcarbamate] | 
40 | 0.1 to 1 µM | < 0.1 µM | < 0.1 µM | CCOC(=O)Nc1nc(Nc2ccccc2)nc(-c2ccccc2)n1 [Compound 181, ethyl 4-phenyl-6-(phenylamino)-1,3,5-triazin-2-ylcarbamate] | 
41 | 0.1 to 1 µM | < 0.1 µM | < 0.1 µM | CC(C)(C)C(=O)Nc1nc(Nc2ccccc2)nc(-c2ccccc2)n1 [Compound 183, N-(4-phenyl-6-(phenylamino)-1,3,5-triazin-2-yl)pivalamide] | 
42 | 1 to 10 µM | < 0.1 µM | 0.1 to 1 µM | CC(C)Nc1nc(Nc2ccncc2)nc(-c2cccc(F)c2)n1 [Compound 184, 6-(3-fluorophenyl)-N^2-isopropyl-N^4-(pyridin-4-yl)-1,3,5-triazine-2,4-diamine] | 
